Read-outs that look alike come from different tables or passages of the source.
Legend:
MES-SA = assay: In vitro cytotoxicity, MES-SA cells (fluorescent protein readout); assay type: cell-based, human; details: 144 h exposure
Description: (§1) Cell lines: all cell culture reagents were obtained from Sigma-Aldrich; plasticware was purchased from Sarstedt (Nümbrecht, Germany); Human colon Colo205 (chemo-sensitive, ATCC-CCL-222) and Colo320 (Pgp/MDR1-expressing, doxorubicin-resistant, ATCC-CCL-220.1) adenocarcinoma cell lines were purchased from LGC Promochem, Teddington, UK; MES-SA and MES-SA/Dx5 uterine sarcoma cell lines were obtained from ATCC, where they were characterized by DNA fingerprinting. The expression of the Pgp efflux pump of MES-SA/Dx5 was proven by Western blot analysis in our former report, and was also reported for the Colo320 cells. The MES-SA and MES-SA/Dx5 cells used in this study were previously engineered to express the fluorescent proteins mCherry and eGFP, respectively, by lentiviral transduction.
(§2) MES-SA cell lines were maintained in DMEM, supplemented with 10% fetal bovine serum, 5 mmol/L glutamine, and 50 units/mL penicillin and streptomycin. Cells were tested and resulted negative for mycoplasma contamination with the MycoAlert mycoplasma detection Kit (Lonza Group, Basel, Switzerland). One week prior to the cytotoxicity assays, Dx5 eGFP cells were selected in 500 nM doxorubicin for one passage to ensure the overexpression of P-glycoprotein.
(§3) Cytotoxicity assays: The tested compounds were dissolved in PBS buffer to prepare 5 mM stock solutions, which were diluted in complete culture medium.
(§4) In the case of the MES-SA and MES-SA/Dx5 cells, cell suspensions of the fluorescent cell lines were pre-mixed in a 1:1 ratio and seeded in 20 µL medium in a density of 2500 cells/well (1250 cells/well each) in a 384-well plate. After an overnight incubation, a serial dilution of the compounds was added to the plate in a final volume of 60 µL. The P-gp inhibitor tariquidar was added to the cells 15 min prior to the test compounds. After 144 h of incubation, plates were measured for the fluorescent intensity of mCherry (EX/EM: 585 nm/610 nm) and eGFP (EX/EM: 485 nm/510 nm). Cell seeding, aspiration of medium, and addition of drugs were performed by a Hamilton StarLet automated liquid handling robot.
(§5) Inhibition of the cell growth (expressed as IC50: inhibitory concentration that reduces by 50% the growth of the cells exposed to the tested compounds) was determined from the sigmoid curve where 100 − ((ODsample − ODmedium control)/(ODcell control − ODmedium control)) × 100 values were plotted against the logarithm of compound concentrations. Curves for the data obtained on Colo205 and Colo320 cells were fitted by GraphPad Prism software (2021, Graphpad Software, version 7.00, San Diego, CA, USA) using the sigmoidal dose–response model (comparing variable and fixed slopes). From the MES-SA cell data, the IC50 values were calculated by our custom program, written by J. Sessler in C#. The p values were calculated by Student’s t-test. The IC50 values were always obtained from at least three independent experiments.

MES-SA/Dx5 = assay: In vitro cytotoxicity, MES-SA/Dx5 cells (fluorescent protein readout); assay type: cell-based, human; details: for IC50: 144 h exposure; for Selectivity ratio IC50 (MES-SA)/IC50 (MES-SA/Dx5): calculated from IC50 values in Table 4
Description: as §1, §2, §3, §4, §5

Colo205 = assay: In vitro cytotoxicity, Colo205 cells (MTT); assay type: cell-based, human; details: 72 h exposure
Description: as §1
(§6) The colon adenocarcinoma cells were cultured in RPMI 1640 medium supplemented with 10% heat-inactivated fetal bovine serum, 2 mM L-glutamine, 1 mM sodium pyruvate, and 100 mM HEPES. The cells were incubated at 37 °C, in a 5% CO2, 95% air atmosphere.
as §3
(§7) In the case of the Colo205 and Colo320 cells, two-fold serial dilutions were prepared in 100 μL medium. The semi-adherent colon adenocarcinoma cells were treated with Trypsin-Versene (EDTA) solution. They were adjusted to a density of 1 × 10^4 cells in 100 μL of RPMI 1640 medium and were added to each well, with the exception of the medium control wells. The final volume of the wells containing compounds and cells was 200 μL. The plates containing Colo205 and Colo320 cells were incubated at 37 °C for 72 h; at the end of the incubation period, 20 μL of 3-(4,5-dimethyl-2-thiazolyl)-2,5-diphenyl-2H-tetrazolium bromide (MTT) solution (from a stock solution of 5 mg/mL) was added to each well. After incubation at 37 °C for 4 h, 100 μL of sodium dodecyl sulfate (SDS) solution (10% in 0.01 M HCI) was added to each well, and the plates were further incubated at 37 °C overnight. Cell growth was determined by measuring the optical density (OD) at 540/630 nm with a Multiskan EX plate reader (Thermo Labsystems, Cheshire, WA, USA).
as §5, with “From the MES-SA cell data, the IC50 values were calculated by our custom program, written by J. Sessler in C#. The p values were calculated by Student’s t-test. The IC50 values were always obtained from at least three independent experiments.” left out

Colo320 = assay: In vitro cytotoxicity, Colo320 cells (MTT); assay type: cell-based, human; details: for IC50: 72 h exposure; for Selectivity ratio IC50 (Colo205)/IC50 (Colo320): calculated from IC50 values in Table 4
Description: as §1, §6, §3, §7, §5

[1] = test system: Enterococcus faecalis (ATCC 29212); assay: Antibacterial effect, MIC determination; assay type: cell-based; details: visual inspection, read-out: minimum inhibitory concentration (MIC)
Method: (§8) Escherichia coli (ATCC 25922), Klebsiella pneumoniae (ATCC 49618) were used as Gram-negative strains; and Staphylococcus aureus (ATCC 25923, methicillin-resistant (MRSA)), and Enterococcus faecalis (ATCC 29212) strains were applied as Gram-positive bacterial cultures in the experiments. MIC values of the complexes were determined in 96-well plates based on the Clinical and Laboratory Standard Institute guidelines (CLSI guidelines). The stock solutions of the compounds (dissolved in PBS buffer using 5 mM concentration) were diluted in 100 μL of Mueller Hinton Broth. Then, 10^−4 dilution of an overnight bacterial culture in 100 μL of medium was added to each well, with the exception of the medium control wells.

[2] = test system: Escherichia coli (ATCC 25922); assay: Antibacterial effect, MIC determination; assay type: cell-based; details: visual inspection, read-out: minimum inhibitory concentration (MIC)
Method: as §8

[3] = test system: Klebsiella pneumoniae (ATCC 49618); assay: Antibacterial effect, MIC determination; assay type: cell-based; details: visual inspection, read-out: minimum inhibitory concentration (MIC)
Method: as §8

[4] = test system: Staphylococcus aureus (ATCC 25923, methicillin-resistant (MRSA)); assay: Antibacterial effect, MIC determination; assay type: cell-based; details: methicillin-resistant S. aureus (MRSA), 18 h, visual inspection, read-out: minimum inhibitory concentration (MIC)
Method: as §8

MIC ([1]; ATCC29212, 18 h) [µM]	MIC ([2]; ATCC25922, 18 h) [µM]	MIC ([3]; ATCC49618, 18 h) [µM]	MIC ([4]; Staphylococcus aureus) [µM]	Structure (SMILES)	IC50 (MES-SA; Homo sapiens, MES-SA) [µM]	IC50 (MES-SA/Dx5; Homo sapiens, MES-SA/Dx5) [µM]	Selectivity ratio IC50 (MES-SA)/IC50 (MES-SA/Dx5) (MES-SA/Dx5)	IC50 (Colo205; Homo sapiens, COLO 205) [µM]	IC50 (Colo320; Homo sapiens, COLO 320) [µM]	Selectivity ratio IC50 (Colo205)/IC50 (Colo320) (Colo320)	IC50 (MES-SA) [µM]	IC50 (MES-SA/Dx5) [µM]	IC50 (Colo205) [µM]	IC50 (Colo320) [µM]	MIC ([1]; 18 h) [µM]	MIC ([2]; 18 h) [µM]	MIC ([3]; 18 h) [µM]	MIC [4] [µM]
> 100	> 100	> 100	> 100	O=C(O)[C@@H]1CCCN1Cc1cc([N+](=O)[O-])c2cccnc2c1O [HQNO2-L-Pro, (2S)-1-((8-hydroxy-5-nitroquinolin-7-yl)methyl)pyrrolidin-1-ium-2-carboxylate]	226 ± 17	97 ± 29	2.33	34 ± 1	32.4 ± 0.4	1.06	–	–	–	–	–	–	–	–
–	–	–	–	CC1=C(C)[C](C)([Rh]([Cl])[O]c2c(C[NH+]3CCC[C@H]3C(=O)O)cc([N+](=O)[O-])c3cccnc23)C(C)=C1C.[Cl-] [RhCp*-HQNO2-L-Pro, [RhCp*(HQNO2-L-Pro)Cl]Cl]	–	–	1.58	–	–	1.16	167 ± 38	106 ± 8	35 ± 1	29.8 ± 0.2	> 100	> 100	> 100	50
–	–	–	–	Cc1ccc(C(C)C)cc1.O=C(O)[C@@H]1CCC[NH+]1Cc1cc([N+](=O)[O-])c2ccc[n+]3c2c1[O][Ru-]3[Cl].[Cl-] [RuCym-HQNO2-L-Pro, [RuCym(HQNO2-L-Pro)Cl]Cl]	–	–	≤ 0.42	–	–	–	166 ± 37	> 400	> 100	> 100	> 100	> 100	> 100	> 100
